Laboratory results taken from patent US20250041261A1, “METHODS AND COMPOSITIONS FOR TREATING MELANOMA” (INSTITUT NATIONAL DE LA SANTÉ ET DE LA RECHERCHE MÉDICALE, priority 2021, published 2025).
“Also recorded” adds a separate entry of the source.

Legend:
[1] = test system: Uveal melanoma cells (OMM1.3, MM28, MP46, MP65); assay: Cell survival assay (PrestoBlue), 2D-cultures; type: cell-based, human; settings: increasing concentrations, PrestoBlue after 96 h / 72 h
Method: Uveal melanoma cells (OMM1.3, MM28, MP46, MP65) were seeded at 5,000 cells/well in a 96-well plate and treated with increasing concentrations of AM23, salinomycin or staurosporine as positive control as indicated on the figure. The condition “milieu RPMI” represents medium without cells. After 96 h of incubation, cells were incubated with PrestoBlue reagent according to manufacture instructions. The absorbance per well was measured with a microplate reader. The data were then analyzed using excel.
Uveal melanoma cells were seeded at 5,000 cells/well in a 96-well plate and treated with salinomycin or ironomycin as well as a positive control (staurosporin, 500 nM). After 72 h of incubation, cells were treated with PrestoBlue reagent according to manufacture instructions (Thermofisher). The absorbance per well was measured with a microplate reader. The data were then analyzed using excel software.
Uveal melanoma cells are known to hardly enter into apoptosis in response to treatments. Thus, we investigated the effects of salinomycin (Sal) and its derivate called ironomycin (AM23) that have been shown, in different cancer cells, to trigger ferroptosis, a type of cell death based on accumulation of iron into lysosomes and subsequent lysosomal membrane permeabilization. We treated a panel of uveal melanoma cells, i.e the human metastatic OMM1.3 (BAP1+) and MM28 (BAP1+) cells, and the human primary MP46 (BAP1−) and MP65 (BAP1−) cells, with Sal or its derivate AM23 to determine if these drugs can represent potential therapeutic options.

[2] = test system: MP46 and OMM1.3 human uveal melanoma cells; assay: Fe (ii) detection in lysosomes with RhoNox-M fluorescent probe; type: cell-based; settings: AM23 30 nM or 100 nM, salinomycin 0.5 mM, 48 h, then RhoNox-M 1 h, compared to control cells
Method: A. MP46 and B. OMM1.3 human uveal melanoma cells were seeded at 5000 cells/well on a glass coverslip and were treated with DMSO (Ctl), AM23 (30 nM or 100 nM) or salinomycin (0.5 mM) for 48 h and then with RhoNox-M for 1 h for Fe 2+ detection. Representative confocal fluorescence microscopy images.
To assess whether AM23 triggers lysosomal iron accumulation, we evaluated whether endocytic vesicles contained Fe (ii) as previously reported. To this aim, the Fe (ii)-specific turn-on fluorescent probe RhoNox-M, which can detect the presence of Fe (ii) in lysosomes, was used. […] In response to the ensuing cytoplasmic depletion of iron, cells triggered in lysosomes the degradation of ferritin, which stores cellular iron, leading to further iron loading in this organelle.

ferritin = assay: Western blot of ferritin expression; type: cell-based, human; settings: OMM1.3 and MP46 cells; AM23 100 nM or salinomycin 0.5 mM for 48 h; immunoblot
Method: FIG. 5: Effect of AM23 or salinomycin on ferritin expression. OMM1.3 and MP46 human uveal melanoma cells were left untreated (UNT) or were treated with DMSO (Ctl), AM23 (100 nM) or salinomycin (0.5 mM) for 48 h. Cell lysates were analysed by immunoblot with antibodies to ferritin. Actin was used as a loading control.
Briefly, uveal melanoma cell lysates (50 μg) were separated using SDS-PAGE, transferred onto a PVDF membrane and subsequently exposed to the appropriate antibodies, anti-ferritin (#sc376594, 1/1,000) and anti-actin (sc47778, 1/1,000) from Santa Cruz Biotechnology. The proteins were visualized using the ECL system (Amersham). The western blots shown are representative of at least 3 independent experiments.

[3] = test system: primary uveal melanoma cells (MP46 and MP65) or metastatic uveal melanoma cells (OMM1.3) expressing or not BAP1; assay: Colony formation assay; type: cell-based, human; settings: MP46, MP65, OMM1.3, whether BAP1 is expressed or not; 7 days
Description: FIG. 6: Colony formation assay of primary uveal melanoma cells (MP46 and MP65) or metastatic uveal melanoma cells (OMM1.3) expressing or not BAP1 after seeding them for 7 days upon treatment with the drugs indicated on the figure. Representative wells are shown.

[4] = test system: Primary (MP46) or metastatic (OMM1, OMM2.5, OMM1.3) uveal melanoma cells; assay: PrestoBlue proliferation/survival assay (FIG. 7); type: cell-based, human; settings: MP46, OMM1, OMM2.5, OMM1.3, increasing concentrations, 72 h
Method: FIG. 7: Primary (MP46) or metastatic (OMM1, OMM2.5, OMM1.3) uveal melanoma cells were seeded at 3000 cells/well in a 96 well plate and treated with increasing concentrations of salinomycin, AM23 or AM5. After 72 h of incubation, cells were treated with PrestoBlue reagent according to manufacture instructions. The absorbance per well was measured with a microplate reader. The data were then analyzed using Prism8. Histograms bars represent the average of three replicates #standard error of the mean (s.e.m).

[5] = test system: PLX-resistant metastatic cutaneous melanoma cells; assay: Cell count of PLX-sensitive and resistant cutaneous melanoma cells; type: cell-based; set-up: dose or concentration left out as unconfirmed; settings: increasing concentrations of AM23 or AM5 in presence or absence of PLX; cells counted after 72 h; FIG. 1
Method: PLX-sensitve and resistant cutaneous melanoma cells, seeded at 150,000 cells/well in 6-well dishes, were treated with increasing concentrations of AM23 or AM5 in presence or absence of PLX ([…]). Cells were manually counted after 72 h.
PLX-sensitve and resistant cutaneous melanoma cells were seeded at 150,000 cells/well in 6-well dishes. They were treated with increasing concentrations of AM23 or AM5 in presence or absence of PLX ([…]). Cells were manually counted after 72 h.

[6] = test system: Uveal melanoma cells (OMM1.3, MM28, MP65 and MP46); assay: Spheroid (melanosphere) formation, 3D-cultures; type: cell-based, human; settings: AM23 100 nM (or 1 mM); low attachment plates; pictures after 8 days
Method: Uveal melanoma cells (OMM1.3, MM28, MP65 and MP46) were seeded at 5000 cells/well in 6-well low attachment plates and were left untreated (0) or were treated with DMSO (Ctl) or AM23 (100 nM or 1 mM) 24 hours later. Representative pictures taken after 8 days are shown.
Uveal melanoma cells were seeded at a density of 5,000 cells per well and grown in MEF medium (R&D systems, #AR005) supplemented with 4 ng/ml FGF2 in low adherence plates. The following day, wells were supplemented with ironomycin (100 nM or 1 mM). Photographs were taken using a phase contrast microscope (EVOS XL Core Imaging System).

Compound	proliferation/survival of uveal melanoma cells in 2D-cultures [1]	proliferation/survival of uveal melanoma cells in 2D-cultures ([1]; listed as Sal)	Fe (ii) / iron accumulation in lysosomes (RhoNox-M fluorescence) [2]	Fe (ii) / iron accumulation in lysosomes (RhoNox-M fluorescence) ([2]; listed as Sal)	ferritin expression (ferritin)	ability of uveal melanoma cells to form colonies [3]	uveal melanoma cell proliferation/survival (FIG. 7) [4]	resensitization of PLX-resistant cells to PLX effects (cell count) [5]	melanosphere formation / cell survival in 3D-cultures [6]
CC[C@@H](C(=O)O)C1CC[C@H](C)[C@H]([C@@H](C)[C@H](O)[C@H](C)C(=O)[C@H](CC)[C@H]2OC3(C=C[C@@H](O)C4(CC[C@@](C)([C@H]5CC[C@](O)(CC)[C@H](C)O5)O4)O3)[C@H](C)C[C@@H]2C)O1 (stereo in doubt) [Salinomycin, (2R)-2-[(5S,6R)-6-[(1S,2S,3S,5R)-5-[(2S,5R,7S,9S,10S, 12R, 15R)-2-[(2R,5R,6S)-5-ethyl-5-hydroxy-6-methyl-2-tetrahydropyranyl]-15-hydroxy-2,10,12-trimethyl-1,6,8-trioxadispiro[4.1.57.35]pentadec-13-en-9-yl]-2-hydroxy-1,3-dimethyl-4-oxoheptyl]-5-methyl-2-tetrahydropyranyl]butanoic acid, reference compound]	induces uveal melanoma cell death	reduced proliferation/survival	induces Fe (ii) in lysosomes	exhibited fluorescent RhoNox-M-positive vesicles	strongly reduced	strong reduction			
C#CCN[C@@H]1C=C[C@]2(O[C@H]([C@@H](CC)C(=O)[C@@H](C)[C@@H](O)[C@H](C)C3O[C@@H](C(CC)C(=O)O)CC[C@@H]3C)[C@@H](C)C[C@H]2C)O[C@@]12CC[C@@](C)([C@H]1CC[C@](O)(CC)[C@H](C)O1)O2 (stereo partly shown) [AM5]							decreases uveal melanoma cell proliferation/survival, yet with a little bit lower efficacy than AM23		
C#CCN[C@@H]1C=C[C@]2(O[C@H]([C@@H](CC)C(=O)[C@@H](C)[C@@H](O)[C@H](C)[C@@H]3O[C@@H]([C@@H](CC)C(=O)O)CC[C@@H]3C)[C@@H](C)C[C@H]2C)O[C@@]12CC[C@@](C)([C@H]1CC[C@](O)(CC)[C@H](C)O1)O2 [AM23, (2R)-2-[(2R,5S,6R)-6-{(2S,3S,4S,6R)-6-[(2S,5S,7R,9S,10S,12R,15R)-2-[(2R,5R,6S)-5-Ethyl-5-hydroxy-6-methyltetrahydro-2H-pyran-2-yl]-2, 10,12-trimethyl-15-(2-propyn-1-ylamino)-1,6,8-trioxadispiro[4.1.5.3]pentadec-13-en-9-yl]-3-hydroxy-4-methyl-5-oxo-2-octanyl}-5-methyltetrahydro-2H-pyran-2-yl]butanoic acid]	induces uveal melanoma cell death; also recorded: reduced proliferation/survival		induces Fe (ii) in lysosomes; also recorded: exhibited fluorescent RhoNox-M-positive vesicles		strongly reduced	strong reduction		resensitizes PLX-resistant metastatic cutaneous melanoma cells to PLX effects	prevents melanosphere formation; also recorded: almost complete disappearance of melanospheres
